According to patent US12082907B2, “Systems, methods, and apparatus for multichannel imaging of fluorescent sources in real-time” (Memorial Sloan Kettering Cancer Center, priority 2013, dated 2024):

Tested on: spontaneous melanoma miniswine model
Assay: Pre-operative PET-CT SLN mapping in spontaneous melanoma miniswine model
Type: in vivo, Sinclair miniature swine
Excerpt: FIG. 6 depicts imaging of metastatic disease in a spontaneous melanoma miniswine model, in accordance with an embodiment of the present disclosure. ^124I-cRGDY-PEG-C dots and combined PET-optical imaging approaches can evaluate SLN mapping in a spontaneous melanoma miniswine model (Misfeldt, Vet. Immunol. Immunopathol. (1994); Oxenhandler, Am. J. Pathol. (1979); Millikan, J. Invest. Dermatol. (1974)) (Sinclair miniature swine, Sinclair Research Center). Image-guided metastatic disease detection, staging, and the assessment of differential tumor burden in SLN/s were evaluated in 4-10 kg miniswine (n=5) in conjunction with correlative histopathology. […]
FIGS. 7A-7I depict image-guided SLN Mapping in a spontaneous melanoma miniswine model using pre-operative PET imaging, in accordance with an embodiment of the present disclosure. These studies were expanded to include optical imaging using the portable ArteMIS™ fluorescence camera system, along with radiodetection using the gamma probe, for performing real-time assessments of the draining tumor lymphatics and nodal metastases. […] FIG. 7I depicts radioactivity levels of the primary tumor, SLN (in vivo, ex vivo), and a site remote from the primary tumor (i.e., background), using a handheld gamma probe. […]

In the case of “2-deoxy-2-[^18F]fluoro-D-glucose [^18F-FDG]”, the “discrimination of metastatic disease from inflammatory processes” value (miniswine with granulomatous inflammatory changes (n=3), PET-CT) was “failed to detect metastatic disease” and the “detection of nodal metastases on PET-CT” value (representative miniswine, neck nodes, dynamic imaging over 1 hour) was “clear absence of nodal metastases”.
